Like-named read-outs stand apart in the source and are kept apart here. Residues, ends and D or L forms follow the SMILES beside them.
Key:
burn injury [1] = details: cited from earlier work
mesenchymal cell = details: in solution; intrinsically and synergistically with growth factors, especially PDGF-BB; cited from earlier work
burn injury [2] = details: rat burn model; cited from earlier work
[3] = tested on: adult human dermal fibroblasts (AHDF); details: oxidative and cytokine stress and/or nutrient withdrawal, in the presence of PDGF-BB; cited from earlier work
[4] = anaphylactoid response with 30 min infusion in pig models; assay type: in vivo
Experimental: Depending on the animal type, cP12 (SEQ ID NO:2) (or linear P12. SEQ ID NO:1) can induce an anaphylactoid response at 2.5 to 10 mg/kg given as an iv bolus or even a rapid infusion. This reaction is less likely with a slower infusion.

porcine burns = assay: porcine vertical injury progression burn model, wound closure by H&E histology; assay type: in vivo, pig; details: for percent wounds closed (100% re-epithelialization) at 14 d post-burn: compiled data
Experimental: For a pathobiology proof-of-principle study we used a validated porcine vertical injury progression burn model (Singer A J, Hirth D, McClain S A, Crawford L, Lin F, and Clark R A. Validation of a vertical progression porcine burn model. J Burn Care Res. 2011; 32(6):638-46). In short, while under general anaesthesia, twenty burns were created on the dorsal skin of four outbred female Yorkshire pigs (˜25 kg) using a 2.5×2.5×7.5 cm, 150 gram aluminum bar equilibrated in an 80° C. water bath and applied for 20 s. The application of the 80° C. aluminum bar caused burn injury a little beyond mid-dermis but often progressed to full-thickness within 3-7 days. All burns were treated with petrolatum, and protected with Tegaderm. In some pigs, a fibronectin (FN)-derived peptide (P12) (SEQ ID NO:1) was infused over 30 min at 1, 2, and 4 h post-burn using doses of 0.003, 0.01 or 0.03 mg/kg. The infused P12 peptide (SEQ ID NO:1) was cyclized (cP12) (SEQ ID NO:2) to prevent exopeptidase digestion from amino- and carboxy-peptidases, which are common in the blood and skin.
Tissue specimens taken at 14 days after a 30 min infusion of cP12 (SEQ ID NO:2) doses at 0.003, 0.01, 0.03 or 0.1 mg/kg, where infusions began at 1, 4, 8, 12 and 24 h post-burn, have been fixed, stained with hematoxylin and eosin (H&E), and determined whether the surface of the wound was 100% re-epithelialized, i.e. wound closure obtained. The percent wounds totally re-epithelialized at each cP12 (SEQ ID NO:2) dose and each post-burn time of onset of a 30 min infusion are recorded in Table 1. The number of pigs used for each dose and time is denoted in Table 1 by parentheses. Each pig while under general anesthesia had 20 burn wounds administered on the back by a 2.5×2.5 aluminum bar heated to 80° C. and applied to the skin for 20 sec.
The effect of cP12 (SEQ ID NO:2) doses at 0.003, 0.01, 0.03 or 0.1 mg/kg at 4 h post-burn 30 min-infusion on percent wounds closed at 14d post-burn the 5 experiments performed under these conditions are shown in Table 2. The dates indicate the onset on each experiment, i.e. the date the pigs receive burns.

P12: 14-residue fibronectin fragment PSHISKYILRWRPK, cryptic within fibronectin's first type III repeat (FNIII1) (a 14-residue peptide that is cryptic within the immunoglobulin sandwich type of beta-pleated sheet of fibronectin′s first type III repeat)
burn injury progression (burn injury [1]; porcine burn model): limits burn injury progression | scarring (burn injury [1]; vertical burn injury progression pig model): mitigates scarring | mesenchymal cell growth, proliferation and migration (mesenchymal cell): promotes mesenchymal cell growth, proliferation and migration | burn injury progression (burn injury [2]): limits burn injury progression | protection from cell death [3]: protects

CC[C@H](C)[C@@H]1NC(=O)[C@H](Cc2ccc(O)cc2)NC(=O)[C@H](CCCCN)NC(=O)[C@H](CO)NC(=O)[C@H]([C@@H](C)CC)NC(=O)[C@H](Cc2c[nH]cn2)NC(=O)[C@H](CO)NC(=O)[C@@H]2CCCN2C(=O)[C@H](CCCCN)NC(=O)[C@@H]2CCCN2C(=O)[C@H](CCCNC(=N)N)NC(=O)[C@H](Cc2c[nH]c3ccccc23)NC(=O)[C@H](CCCNC(=N)N)NC(=O)[C@H](CC(C)C)NC1=O [cP12] (HELM PEPTIDE1{H.I.S.K.Y.I.L.R.W.R.P.K.P.S}$PEPTIDE1,PEPTIDE1,1:R1-14:R2$$$V2.0)
anaphylactoid response [4]: avoid any anaphylacoid response | percent wounds closed (100% re-epithelialization) at 14 d post-burn (porcine burns; 0.003 mg/kg, 30 min i.v. infusion begun 1 h post-burn): 17 (5) percent | percent wounds closed (100% re-epithelialization) at 14 d post-burn (porcine burns; 0.003 mg/kg, 30 min i.v. infusion begun 4 h post-burn): 37 (3) percent | percent wounds closed (100% re-epithelialization) at 14 d post-burn (porcine burns; 0.01 mg/kg, 30 min i.v. infusion begun 1 h post-burn): 28 (8) percent | percent wounds closed (100% re-epithelialization) at 14 d post-burn (porcine burns; 0.01 mg/kg, 30 min i.v. infusion begun 4 h post-burn): 65 (5) percent | percent wounds closed (100% re-epithelialization) at 14 d post-burn (porcine burns; 0.01 mg/kg, 30 min i.v. infusion begun 8 h post-burn): 34 (5) percent | percent wounds closed (100% re-epithelialization) at 14 d post-burn (porcine burns; 0.01 mg/kg, 30 min i.v. infusion begun 12 h post-burn): 40 (3) percent | percent wounds closed (100% re-epithelialization) at 14 d post-burn (porcine burns; 0.01 mg/kg, 30 min i.v. infusion begun 24 h post-burn): 40 (3) percent | percent wounds closed (100% re-epithelialization) at 14 d post-burn (porcine burns; 0.03 mg/kg, 30 min i.v. infusion begun 1 h post-burn): 8 (8) percent | percent wounds closed (100% re-epithelialization) at 14 d post-burn (porcine burns; 0.03 mg/kg, 30 min i.v. infusion begun 4 h post-burn): 25 (3) percent | percent wounds closed (100% re-epithelialization) at 14 d post-burn (porcine burns; 0.1 mg/kg, 30 min i.v. infusion begun 1 h post-burn): 25 (5) percent | percent wounds closed (100% re-epithelialization) at 14 d post-burn (porcine burns; 0.1 mg/kg, 30 min i.v. infusion begun 4 h post-burn): 50 (2) percent | percent wounds closed (100% re-epithelialization) at 14 d post-burn (porcine burns; 0.1 mg/kg, 30 min i.v. infusion begun 8 h post-burn): 28 (5) percent | percent wounds closed (100% re-epithelialization) at 14 d post-burn (porcine burns; 0.1 mg/kg, 30 min i.v. infusion begun 12 h post-burn): 25 (3) percent | percent wounds closed (100% re-epithelialization) at 14 d post-burn (porcine burns; 0.1 mg/kg, 30 min i.v. infusion begun 24 h post-burn): 17 (3) percent | effectiveness of i.v. treatment by time of administration after wounding (porcine burns; administered 2 to 6 hours after wounding versus one hour or 8 to 12 hours after wounding): more effective

Reference: US10729741B2, “Methods of treating burns with i.v. cP12 in a window from 2 to 6 hours after injury” (NeoMatrix Therapeutics Inc., priority 2017, dated 2020)
